Results reported in patent US9073858B2, “Methods of targeted drug development” (priority 2010, dated 2015).
“Also recorded” adds a separate entry of the source. Where two headings read alike, the source gives them in different places.

How the values were obtained:
H1975 cells = test: H1975 Cell Proliferation Assay (MTT); assay type: cell-based; settings: read-out: IC50 Value (μM) H1975 Cells
Procedure: (§1) Cell proliferation is determined using the MTT assay. The MTT cell proliferation assay is a colorimetric assay system which measures the reduction of a tetrazolium component (MTT) into an insoluble formazan product by the mitochondria of viable cells. After incubation of the cells with the MTT reagent, DMSO is added to solubilize the colored crystals and the samples read at a wavelength of 560 nm. The amount of color produced is directly proportional to the number of viable cells.
(§2) 3-(4,5-Dimethylthiazol-2-yl)-2,5-diphenyltetrazolium Bromide (MTT) dye (Aesar, cat no. L11939) was prepared at 5 mg/ml in PBS. To each well, 20 μl of MTT solution was added to existing media and mixed thoroughly with 5 mins of gentle shaking at room temperature. Plates were incubated at 37° C., 5% CO2 for approximately 2 hrs. After 2-3 hrs incubation, media was aspirated out and plates were patted dry. […] Plates were incubated at 37° C., 5% CO2 for 10 min and mix thoroughly with 5 mins of gentle shaking at room temperature. Plates were read on the PolarStar plate reader at 560 nm. Percent (%) inhibition was calculated as 100%−(OD560 nm experimental-blank)×100%/OD560 nm control-blank. Blank=wells+serum free media+0.5% DMSO. Experimental=wells+cells+treatment+0.5% DMSO. Control=wells+cells+0.5% DMSO. IC50 values were calculated in GraphPad Prism using non-linear regression curve fitting. All statistical analyses was done either in GraphPad Prism or Microsoft Excel.
Briefly, compounds are added to cells plated in 96-well plates. The cells are allowed to grow for 72 hours before MTT treatment. The effect of the compounds on cell proliferation is analyzed using GraphPad Prism.

[1] = Stability on incubation with human liver microsomes (HLM); assay type: in vitro ADME; settings: percentage left after incubation with human liver microsomes for 30 minutes
In short: (§3)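 Values are percent compound remaining after 30 min incubation with mouse or human liver microsomes.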

A549 cells = test: A549 Cell Proliferation Assay (MTT); assay type: cell-based
Procedure: Cell proliferation is determined using the MTT assay. The MTT cell proliferation assay is a colorimetric assay system which measures the reduction of a tetrazolium component (MTT) into an insoluble formazan product by the mitochondria of viable cells. After incubation of the cells with the MTT reagent, DMSO is added to solubilize the colored crystals and the samples read at a wavelength of 560 nm. The amount of color produced is directly proportional to the number of viable cells. […] L11939) was prepared at 5 mg/ml in PBS. […] Plates were read on the PolarStar plate reader at 560 nm. […] IC50 values were calculated in GraphPad Prism using non-linear regression curve fitting. All statistical analyses was done either in GraphPad Prism or Microsoft Excel. […] Briefly, compounds are added to cells plated in 96-well plates. The cells are allowed to grow for 72 hours before MTT treatment. The effect of the compounds on cell proliferation is analyzed using GraphPad Prism. A549 cells are a non-small cell lung cancer cell line that have wild type EGFR and p53 but have point mutations in KRAS gene which transform it into an oncogene. […] SH30071.03, lot no. ATB31500), 1% Pen Strep (Gibco, cat no. […] On day 2, working solutions of compounds at 200× were prepared. […] Plates were incubated for 72 hours before analyzing them with MTT (as described above).

HT-29 cells = test: HT-29 Cell Proliferation Assay (MTT); assay type: cell-based; settings: read-out: IC50 Value (μM) HT-29 Cells
Procedure: as §1, §2
Briefly, compounds are added to cells plated in 96-well plates. […] The effect of the compounds on cell proliferation is analyzed using GraphPad Prism.
HT-29 cells are a colon cancer cell line that is utilized to assess the ability of compounds to inhibit the proliferation of cells in tumors of the colon.
For the HT-29 cell proliferation assay, on day 1, HT-29 cells are seeded at 3,000 cells/well in 100 μl media containing 10% FBS, 1× Pen-Strep, and 1× L-Glutamine in 96 well, tissue culture-treated plates. […] Working solutions of compounds were prepared (at […] in 100% DMSO). To 200 μl media, 20 μl of a 5× compound (diluted in plain media) was added for a final DMSO concentration of 0.5%. […] On day 5, plates were analyzed for cell growth using the MTT assay.

[2] = Stability on incubation with mouse liver microsomes (MLM); assay type: in vitro ADME; settings: for MLM % Remaining@ 30 Min: percentage left after incubation with mouse liver microsomes for 30 minutes; for stability toward liver microsome incubation: mouse and human liver microsomes (MLM, HLM)
In short: as §3

[3] = tested on: DNA fragmentation in A549 cells; test: DNA Fragmentation Assay (Cell Death Detection ELISA); assay type: cell-based; settings: for activation at 1 µM / activation at 10 µM / Emax at 1 µM / Emax at 10 µM: Homo sapiens; for activation at 1 µM / activation at 10 µM: A549, 24 h, read-out: % Increase over Background; for Emax at 1 µM / Emax at 10 µM: A549, read-out: % Increase Relative to Staurosporin; for induction of apoptosis in A549 cells (DNA fragmentation assay): 10 μM, FIG. 15
[4] = Homo sapiens, A549, 72 h, read-out: IC50 Value (μM) A549 Cells
[5] = Homo sapiens, A549, read-out: IC50, cell proliferation in A549 or H1975 cells

| SMILES | IC50 (H1975 cells; Homo sapiens, NCI-H1975, 72 h) | HLM % Remaining@ 30 Min [1] | IC50 (A549 cells; [4]) | IC50 (HT-29 cells; Homo sapiens, HT-29, 72 h) | MLM % Remaining@ 30 Min [2] | further results |
| --- | --- | --- | --- | --- | --- | --- |
| Cc1c(Cl)cnc(NC(c2ccc(Cl)cc2Cl)c2ccc3cccnc3c2O)c1F (stereo not shown) [AD4-13199] | 0.16 µM | 100% | 0.12 µM | 0.75 µM | 63% | activation at 1 µM [3]: 130%; activation at 10 µM [3]: 492%; Emax at 1 µM [3]: 15%; Emax at 10 µM [3]: 55% |
| Oc1c(C(Nc2ncc(Cl)cc2F)c2ccc(Cl)cc2Cl)ccc2cccnc12 (stereo not shown) [AD4-13143] | 0.13 µM | 96% | 0.13 µM | 1.1 µM | 76% |  |
| Oc1c(C(Nc2ccc(C(F)(F)F)cn2)c2cccc(C(F)(F)F)c2)ccc2cccnc12 (stereo not shown) [AD4-13164] |  |  |  |  |  | activation at 1 µM [3]: 525%; activation at 10 µM [3]: 788%; Emax at 1 µM [3]: 39%; Emax at 10 µM [3]: 58% |
| Cc1cc(NC(c2ccc(Cl)c(C(F)(F)F)c2)c2ccc3cccnc3c2O)ncc1Cl (stereo not shown) [AD4-13108] | 0.3 µM | 93% | 0.14 µM | 3.3 µM | 25% |  |
| Cc1nc(NC(c2ccc(Cl)cc2Cl)c2ccc3cccnc3c2O)c(Cl)cc1Cl (stereo not shown) [AD4-13206] | 0.36 µM | 99% | 0.074 µM | 2.1 µM | 93% | IC50 (A549 cells; [5]): ≤ 0.1 µM; stability toward liver microsome incubation [2]: increased stability; also recorded: good stability |
| Oc1c(C(Nc2cc(Cl)c(Cl)cn2)c2ccc(Cl)c(Cl)c2)ccc2cccnc12 (stereo not shown) [AD4-13177] | 0.27 µM | 86% | 0.14 µM | 1.5 µM | 86% |  |
| Oc1c(C(Nc2ncc(F)cc2F)c2cc(Cl)cc(Cl)c2)ccc2cccnc12 (stereo not shown) [AD4-13176] |  |  |  |  |  | induction of apoptosis in A549 cells (DNA fragmentation assay) [3]: induce apoptosis |
| Cc1cc(Cl)cnc1NC(c1ccc(C(F)(F)F)cc1)c1ccc2cccnc2c1O (stereo not shown) [AD4-13041] | 0.17 µM | 100% | 0.11 µM | 1.1 µM | 81% | stability toward liver microsome incubation [2]: increased stability |
| Cc1cc(NC(c2cccc(Cl)c2Cl)c2ccc3cccnc3c2O)ncc1Cl (stereo not shown) [AD4-13153] | 0.19 µM | 96% | 0.19 µM | 0.79 µM | 62% |  |
| Oc1c(C(Nc2cc(Cl)c(Cl)cn2)c2cc(Cl)ccc2Cl)ccc2cccnc12 (stereo not shown) [AD4-13179] | 0.14 µM |  | 0.14 µM | 4.1 µM |  | induction of apoptosis in A549 cells (DNA fragmentation assay) [3]: induce apoptosis |
| Cc1cc(Cl)cnc1NC(c1ccc(C(F)(F)F)cc1F)c1ccc2cccnc2c1O (stereo not shown) [AD4-13042] | 0.13 µM | 101% | 0.11 µM | 1.3 µM | 99% | stability toward liver microsome incubation [2]: increased stability |
| Oc1c(C(Nc2ccc(F)cn2)c2cc(Cl)cc(Cl)c2Cl)ccc2cccnc12 (stereo not shown) [AD4-13111] | 0.37 µM | 92% | 0.14 µM |  | 87% | IC50 (HT-29 cells): 8.9 µM |
| Cc1cc(Cl)cnc1NC(c1cc(Cl)cc(Cl)c1)c1ccc2cccnc2c1O (stereo not shown) [AD4-13131] | 0.1 µM | 100% | 0.1 µM | 0.92 µM | 83% | IC50 (A549 cells; [5]): ≤ 0.1 µM |
| Oc1c(C(Nc2ccc(Cl)cn2)c2cccc(Cl)c2Cl)ccc2cccnc12 (stereo not shown) [AD4-13086] | 0.15 µM | 72% | 0.16 µM | 1.2 µM | 37% |  |
| Oc1c(C(Nc2ncc(C(F)(F)F)cc2F)c2ccc(Cl)cc2Cl)ccc2cccnc12 (stereo not shown) [AD4-13165] | 0.14 µM | 100% | 0.16 µM | 5 µM | 100% | stability toward liver microsome incubation [2]: increased stability; also recorded: good stability; induction of apoptosis in A549 cells (DNA fragmentation assay) [3]: induce apoptosis |
| CCc1cc(Cl)cnc1NC(c1ccc(Cl)cc1)c1ccc2cccnc2c1O (stereo not shown) [AD4-13225] |  |  |  |  |  | activation at 1 µM [3]: 702%; activation at 10 µM [3]: 697%; Emax at 1 µM [3]: 52%; Emax at 10 µM [3]: 52% |
| Oc1c(C(Nc2ccc(F)cn2)c2cc(Cl)cc(Cl)c2Cl)ccc2cccnc12 (stereo not shown) [AD4-13132] |  | 98% |  |  | 66% | IC50 (H1975 cells): 0.31 µM; IC50 (A549 cells; read-out: IC50 Value (μM) A549 Cells): 0.17 µM; IC50 (HT-29 cells): 1.6 µM |
| Cc1cc(Cl)cnc1NC(c1cc(Cl)ccc1Cl)c1ccc2cccnc2c1O (stereo not shown) [AD4-13137] | 0.12 µM |  | 0.16 µM | 0.78 µM |  | activation at 1 µM [3]: 182%; activation at 10 µM [3]: 628%; Emax at 1 µM [3]: 18%; Emax at 10 µM [3]: 55% |
| Oc1c(C(Nc2cc(Cl)c(Cl)cn2)c2ccc(Cl)cc2Cl)ccc2cccnc12 (stereo not shown) [AD4-13178] | 0.19 µM | 100% | 0.084 µM | 0.79 µM | 83% | IC50 (A549 cells; [5]): ≤ 0.1 µM; apoptotic activity ([3]; Caspase, DNA Fragmentation, Annexin-V): increased apoptotic activity |
